Experimental data reported in patent US20210260101A1, “POTENTIATED ANTIBIOTIC COMPOSITIONS AND METHODS OF USE FOR TREATING BACTERIAL INFECTIONS AND BIOFILMS” (priority 2018, published 2021).
Several values for one entry are separate records, joined by “and”; a condition that tells them apart may be missing. Equal entries are not always repeated. Where two headings read alike, the source gives them in different places. Marks after values point to notes of the source that are not given here.

Columns and labels:
[1] = system: S. epidermidis ATCC 12228 (MSSE 12228); test: MIC/potentiation against MSSE 12228; format: cell-based, Staphylococcus epidermidis
MRSE 35984 biofilms = test: Biofilm kill curve; format: cell-based, Staphylococcus epidermidis; settings: 64 μg/mL BPEI, 16 μg/mL oxacillin, or both
Protocol: Biofilm was grown in an MBEC inoculator plate for 24 hours with shaking to facilitate biofilm formation. At time zero, the prongs were sonicated in PBS for 30 minutes and then plated on agar for CFU counting. […] The prongs on the MBEC inoculator were washed in PBS for 10 seconds and then transferred into the new treated base plate and incubated. Agar CFU plating was performed at 2 hours, 4 hours, 8 hours, and 24 hours for each treatment group. All the agar plating was incubated at 35° C. and counted for colony forming units the next day. Each trial was done in duplicate.

MRSA USA 300 ATCC 1717 = test: Checkerboard MIC assay against MRSA USA300 (Example 1); format: cell-based, Staphylococcus aureus; settings: for MIC: Staphylococcus aureus
MRSE 35984 biofilm = test: MBEC assay (challenge plate MIC, recovery plate MBEC), MRSE 35984; format: cell-based, Staphylococcus epidermidis
Protocol: A sub-culture of MRSE was grown from the cryogenic stock on an agar plate overnight at 35° C. The MBEC plate was inoculated with 150 μL of TSB/well plus 1 μL of a stock culture made from 1 colony/mL of MRSE in TSB. The MBEC inoculator plate was sealed with Parafilm and incubated for 24 hours at 35° C. with 100 rpm shaking to facilitate biofilm formation on the prongs. Following biofilm formation, the lid of the MBEC inoculator was removed and placed in a rinse plate containing 200 μL of sterile PBS for 10 sec. Biofilm growth check (BGC) was performed by breaking a few prongs off using sterile pliers, submerging them in 1 mL PBS, and sonicating them on high for 30 minutes to dislodge the biofilm. After sonication, the biofilm solution was serial-diluted and spot-plated on agar plates for CFU counting to determine the biofilm density on the prongs.
A challenge plate was made in a new pre-sterilized 96-well plate in a checkerboard-assay pattern to test the synergistic activity of BPEI+antibiotic combinations. Antimicrobial solutions were serial-diluted and added to the 96-well plate, which contained 200 μL of cation-adjusted Mueller-Hinton broth (MHB) per well. Following the rinsing step and biofilm growth check, the MBEC inoculator lid was immediately transferred into the prepared antimicrobial challenge plate and incubated at 35° C. for 20-24 hours. After the challenge period, the MBEC inoculator lid was transferred into a recovery plate containing 200 μL of MHB per well, sonicated on high for 30 minutes to dislodge the biofilm and then incubated at 35° C. for 20-24 hour to allow the surviving bacterial cells to grow. After incubation, the OD600 (optical density at 600 nm) of the recovery plate was measured using a Tecan Infinite M20 plate reader to determine the MBEC of the antimicrobial compounds tested. A change in OD600 greater than 0.05 indicated positive growth. Likewise, the OD600 for the base of the challenge plate was measured […] to determine the MICs of the antimicrobial compounds.

MRSA USA300 (BAA-1717) = test: Checkerboard assay (Example 3), MRSA USA300; format: cell-based, Staphylococcus aureus; settings: for MIC: MRSA USA300, agent alone
Protocol: (§1) Cells were grown at 37° C. The change in OD600 (optical density at 600 nm) was measured and recorded after 24 hr of treatment. Each checkerboard trial was done in triplicate using sterile Greiner CellStar™ flat bottom polystyrene plates, catalog #655180.

MRSA MW2 = test: Checkerboard assay (Example 3), MRSA MW2; format: cell-based, Staphylococcus aureus; settings: for MIC: MRSA MW2, agent alone
Protocol: as §1

MRSE 35984 = test: Checkerboard assay (Example 3), MRSE 35984; format: cell-based, Staphylococcus epidermidis
Protocol: as §1

[2] = system: S. epidermidis ATCC 35984 (MRSE 35984); test: MIC/potentiation against MRSE 35984 (Example 1); format: cell-based, Staphylococcus epidermidis
[3] = system: MRSA clinical isolate OU6; test: Clinical laboratory susceptibility (MicroScan), MRSA isolate 6; format: cell-based, S. aureus; settings: MicroScan PC33 gram positive panel
[4] = system: MRSA clinical isolate OU11; test: Clinical laboratory susceptibility (MicroScan), MRSA isolate 11; format: cell-based, S. aureus; settings: MicroScan PC33 gram positive panel

## Cc1onc(-c2ccccc2)c1C(=O)N[C@@H]1C(=O)N2[C@@H]1SC(C)(C)[C@@H]2C(=O)O [oxacillin]
[1]
  MIC, antibiotic + 2 μg/ml (3.375 μM) 600-Da BPEI: 0.1 µg/mL
  MIC, antibiotic + 4 μg/ml (6.75 μM) 600-Da BPEI: 0.1 µg/mL
[1]; agent alone
  MIC of antibiotic only: 0.1 µg/mL
MRSE 35984 biofilms
  biofilm cell density at 24 hours: ~10^3 CFU/mL
MRSA USA 300 ATCC 1717; MRSA USA300
  MIC with 4 μg/ml (6.75 μM) 600-Da BPEI: 1 µg/mL
  MIC, antibiotic + 16 μg/ml (17 μM) PEG350BPEI600: 0.5 µg/mL
  MIC, antibiotic + 64 μg/ml (40 μM) PEG1000BPEI600: 0.5 µg/mL
MRSA USA 300 ATCC 1717; MRSA USA300, agent alone, read-out: MIC of antibiotic only
  MIC: 16 µg/mL
MRSA USA 300 ATCC 1717; MRSA USA300, read-out: oxacillin MIC with 16 μg/mL of PEG350BPEI600 (17 μM)
  MIC: 0.5 µg/mL
MRSA USA 300 ATCC 1717; potentiation in fetal bovine serum vs CAMHB without FBS
  effect of 50% FBS on oxacillin MIC: does not change
MRSA USA 300 ATCC 1717; with BPEI600, MRSA USA300
  fold reduction of oxacillin MIC: 2 fold
MRSE 35984 biofilm; MRSE 35984 biofilm
  MBEC, antibiotic + 4 μg/ml (6.75 μM) 600-Da BPEI: 8* μg/ml
  oxacillin MBEC with 8 μg/mL of BPEI: 32 µg/mL
  oxacillin MBEC with 64 μg/mL of BPEI: 8 µg/mL
MRSE 35984 biofilm; MRSE biofilm
  oxacillin MBEC in the presence of 13 μM of BPEI600: 16 µg/mL
MRSE 35984 biofilm; Staphylococcus epidermidis, MRSE 35984 planktonic, agent alone
  MIC: 16 µg/mL
MRSA USA300 (BAA-1717); BPEI amount in same cell
  OXA MIC in combination with 600 Da BPEI: 4 µg/mL
MRSA USA300 (BAA-1717); listed as OXA
  MIC: 32 µg/mL and 16 µg/mL
MRSA USA300 (BAA-1717); PEG-BPEI amount in same cell
  OXA MIC in combination with PEG-BPEI: 2 µg/mL
MRSA USA300 (BAA-1717); Staphylococcus aureus, read-out: MIC
  MIC: 32 µg/mL
MRSA MW2; BPEI amount in same cell
  OXA MIC in combination with 600 Da BPEI: 2 µg/mL
MRSA MW2; listed as OXA
  MIC: 32 µg/mL and 16 µg/mL
MRSA MW2; PEG-BPEI amount in same cell
  OXA MIC in combination with PEG-BPEI: 4 µg/mL
MRSA MW2; Staphylococcus aureus, MRSA, read-out: MIC
  MIC: 32 µg/mL
MRSE 35984; BPEI amount in same cell
  OXA MIC in combination with 600 Da BPEI: 8 µg/mL
MRSE 35984; MRSE 35984, agent alone
  MIC: 32 µg/mL
MRSE 35984; MRSE 35984, agent alone, listed as OXA
  MIC: 32 µg/mL and 64 µg/mL
MRSE 35984; PEG-BPEI amount in same cell
  OXA MIC in combination with PEG-BPEI: 8 µg/mL
MRSE 35984; Staphylococcus epidermidis, MRSE, MRSE 35984, agent alone, read-out: MIC
  MIC: 64 µg/mL
MRSE 35984; Staphylococcus epidermidis, MRSE, read-out: oxacillin MIC with 6.67 μM BPEI600, MRSE planktonic cells
  MIC: 4 µg/mL
MRSE 35984; Staphylococcus epidermidis, MRSE, read-out: oxacillin MIC with 33.37 μM of PEG350-BPEI600, MRSE planktonic cells
  MIC: 4 µg/mL
[2]
  MIC, antibiotic + 2 μg/ml (3.375 μM) 600-Da BPEI: 2 µg/mL
  MIC, antibiotic + 4 μg/ml (6.75 μM) 600-Da BPEI: 0.25 µg/mL
[2]; adding 6.75 μM of BPEI600
  fold reduction of oxacillin MIC: 256 fold
[2]; agent alone
  MIC of antibiotic only: 64 µg/mL
[3]
  MIC: > 2 µg/mL
[4]
  MIC: > 2 µg/mL
